Results reported in patent publication US20260001849A1, “NOVEL B0AT1 INHIBITOR” (MITSUBISHI TANABE PHARMA CORPORATION, priority 2023, published 2026).

Columns and labels:
Human BOAT1 = biological target: T1, Human BOAT1 (Homo sapiens, UniProt Q695T7); test: hBOAT1 inhibitory test (phenylalanine uptake); assay type: cell-based; conditions: Human BOAT1 stable expression CHO cells; [3H]-L-phenylalanine uptake, phenylalanine 0.25 mM; radioactivity after 100 to 200 min; read-out: hB0AT1 IC50
T1 construct: expressed in transfected cells
T1 sequence (Q695T7 1-634): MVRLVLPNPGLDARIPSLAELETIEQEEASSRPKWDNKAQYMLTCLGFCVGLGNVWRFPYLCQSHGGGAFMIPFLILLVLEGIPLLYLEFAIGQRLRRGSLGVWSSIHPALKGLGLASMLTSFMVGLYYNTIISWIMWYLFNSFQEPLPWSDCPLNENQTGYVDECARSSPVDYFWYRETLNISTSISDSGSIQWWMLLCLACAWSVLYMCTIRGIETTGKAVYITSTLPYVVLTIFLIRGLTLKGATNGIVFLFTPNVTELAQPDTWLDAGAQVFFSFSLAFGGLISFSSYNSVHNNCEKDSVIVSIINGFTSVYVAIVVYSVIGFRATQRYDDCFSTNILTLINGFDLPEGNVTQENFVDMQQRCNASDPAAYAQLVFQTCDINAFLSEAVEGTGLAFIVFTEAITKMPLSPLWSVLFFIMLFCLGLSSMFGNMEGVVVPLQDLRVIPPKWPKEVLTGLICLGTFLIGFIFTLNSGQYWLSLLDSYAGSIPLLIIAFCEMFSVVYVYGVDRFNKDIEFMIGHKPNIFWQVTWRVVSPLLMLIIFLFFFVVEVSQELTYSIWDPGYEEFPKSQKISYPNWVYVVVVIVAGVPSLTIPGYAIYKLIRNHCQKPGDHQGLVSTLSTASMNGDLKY
Method in brief: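 Human BOAT1 stably expressed in CHO cells (75000 cells/well) in HEPES-buffered NaCl/KCl/CaCl2/MgCl2 buffer with 0.01% BSA, compound at 0.5% DMSO, preincubated ≥30 min at ordinary temperature. Uptake of L-phenylalanine plus [3H]-L-phenylalanine (0.25 mM final) read by scintillation proximity; 100–200 min values analysed, non-specific uptake defined with […] reference inhibitor.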

hERG channel = biological target: T2, hERG channel (Homo sapiens, UniProt Q12809); test: hERG channel inhibitory activity, whole-cell patch clamp (auto-patch clamp system); assay type: cell-based; conditions: read-out: hERG IC50
T2 construct: host or cells: CHO cells
T2 sequence (Q12809 whole entry): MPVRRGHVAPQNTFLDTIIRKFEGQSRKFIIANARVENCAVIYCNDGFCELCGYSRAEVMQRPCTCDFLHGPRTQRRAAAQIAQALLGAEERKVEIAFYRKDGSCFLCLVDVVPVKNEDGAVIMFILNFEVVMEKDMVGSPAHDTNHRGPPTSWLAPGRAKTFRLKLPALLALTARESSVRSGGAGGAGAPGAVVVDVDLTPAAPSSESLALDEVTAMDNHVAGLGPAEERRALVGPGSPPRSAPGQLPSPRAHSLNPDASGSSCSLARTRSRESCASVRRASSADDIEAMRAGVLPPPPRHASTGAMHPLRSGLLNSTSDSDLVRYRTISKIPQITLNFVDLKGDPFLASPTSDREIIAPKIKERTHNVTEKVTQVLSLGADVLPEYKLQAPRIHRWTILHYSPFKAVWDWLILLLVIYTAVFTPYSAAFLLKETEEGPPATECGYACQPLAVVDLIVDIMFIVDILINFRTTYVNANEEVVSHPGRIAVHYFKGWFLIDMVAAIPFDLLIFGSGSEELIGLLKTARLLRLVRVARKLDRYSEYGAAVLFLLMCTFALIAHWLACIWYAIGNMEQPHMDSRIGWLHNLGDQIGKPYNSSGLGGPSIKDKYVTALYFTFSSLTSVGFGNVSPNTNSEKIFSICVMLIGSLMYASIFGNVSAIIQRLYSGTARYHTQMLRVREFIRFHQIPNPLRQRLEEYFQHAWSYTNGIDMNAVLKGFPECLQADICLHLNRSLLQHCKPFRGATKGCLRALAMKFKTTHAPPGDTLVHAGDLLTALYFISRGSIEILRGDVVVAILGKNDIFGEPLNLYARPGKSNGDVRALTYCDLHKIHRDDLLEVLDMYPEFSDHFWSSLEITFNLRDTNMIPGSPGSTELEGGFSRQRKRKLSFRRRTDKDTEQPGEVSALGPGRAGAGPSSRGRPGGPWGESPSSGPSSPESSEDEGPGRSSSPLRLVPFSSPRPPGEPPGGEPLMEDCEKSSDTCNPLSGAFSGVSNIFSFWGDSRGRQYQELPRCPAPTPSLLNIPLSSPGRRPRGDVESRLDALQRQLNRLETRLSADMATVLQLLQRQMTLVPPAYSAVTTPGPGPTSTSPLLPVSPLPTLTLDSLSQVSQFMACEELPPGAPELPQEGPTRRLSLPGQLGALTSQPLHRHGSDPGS
Protocol: Evaluation of hERG (Human Ether-a-go-go Related Gene) Channel Inhibitory Activity
The hERG channel inhibitory activity of the compound of the present invention was measured using CHO cells (B′ SYS GmbH) forcibly expressing hERG channels involved in human rapidly active delayed rectifier potassium current (IKr) by the whole-cell patch clamp method using an auto-patch clamp system (SyncroPatch384PE).
Cell suspension, extracellular fluid, intracellular fluid, and measurement plate (NPC-384 plate) were placed in the auto-patch clamp system, and hERG current measurements were performed using the whole-cell patch clamp method. The voltage protocol was set to a holding potential of −80 mV, with a depolarizing pulse preceded by −90 mV (100 ms) and followed by −80 mV (100 ms).
The depolarizing pulse was […] (500 ms), and then the hERG peak current value obtained during the ramp phase was measured when the voltage was lowered to −80 mV over 100 ms. The protocol was applied at 5-second intervals for 5 minutes for each concentration.
SyncroPatch software (manufactured by Nanion) was used for data analysis. Four concentrations were applied incrementally for each test substance, and the average hERG Peak current value obtained from the last three stimuli of each applied concentration was used as the evaluation data. The IC50 value was calculated from the inhibition rate of the current at each concentration of each test substance relative to the pre-application value using Hill's equation (Hill equation) using the relevant software.
The same experiments were also performed using the example compounds described in WO 2023/145804 as comparative example compounds 1-4.

SMILES	IC50 (Human BOAT1) [nM]	IC50 (hERG channel) [nM]
O=C(O)Cc1ccc2c(c1F)CCN(C(=O)CNC(=O)/C=C/c1ccc(C(F)(F)F)cc1)C2 [I-162]	141	> 30000
O=C(/C=C/c1ccc(C(F)(F)F)cc1)NCC(=O)N1CCc2cc(N3CCC(C(=O)O)CC3)ncc2C1 [I-173]	477	> 30000
O=C(O)CCc1ccc2c(c1)CCN(C(=O)CNC(=O)/C=C/c1ccc(C(F)(F)F)cc1)C2 [I-174]	149	> 30000
O=C(O)Cc1cc2c(cc1F)CN(C(=O)CNC(=O)/C=C/c1ccc(C(F)(F)F)cc1)CC2 [I-180]	122	> 30000
O=C(O)Cc1ccc2c(c1)CCN(C(=O)CNC(=O)/C=C/c1ccc(C(F)(F)F)cc1)C2 [I-182]	85	> 30000
O=C(O)Cc1ccc2c(c1)CCN(C(=O)CNC(=O)/C=C/c1ccc(I)cc1)C2 [I-183]	46	> 30000
O=C(O)Cc1ccc2c(c1)CCN(C(=O)CNC(=O)/C=C/c1ccc(Br)cc1)C2 [I-184]	127	> 30000
O=C(O)Cc1ccc2c(c1)CCN(C(=O)CNC(=O)/C=C/c1ccc(Cl)cc1)C2 [I-185]	168	> 30000
O=C(O)Cc1ccc2c(c1)CCN(C(=O)CNC(=O)/C=C/c1ccc(Cl)cc1F)C2 [I-186]	76	> 30000
O=C(O)Cc1ccc2c(c1)CCN(C(=O)CNC(=O)/C=C/c1ccc(C(F)(F)F)cc1F)C2 [I-187]	59	> 30000
O=C(O)Cc1ccc2c(c1)CCN(C(=O)CNC(=O)/C=C/c1ccc(S(F)(F)(F)(F)F)cc1)C2 [I-190]	102	> 30000
O=C(O)COc1ccc2c(c1)CCN(C(=O)CNC(=O)/C=C/c1ccc(C(F)(F)F)cc1)C2 [I-191]	104	> 30000
O=C(O)COc1cccc2c1CCN2C(=O)CNC(=O)/C=C/c1ccc(C(F)(F)F)cc1 [I-194]	74	> 30000
CC(C)(Oc1cc(F)c2c(c1)CCN(C(=O)CNC(=O)/C=C/c1ccc(C(F)(F)F)cc1)C2)C(=O)O [I-195]	186	> 30000
C[C@@H]1CN(C(=O)CNC(=O)/C=C/c2ccc(C(F)(F)F)cc2F)[C@@H](C)CN1CCCC(=O)O [I-197]	2400	> 30000
C[C@@H]1CN(C(=O)CNC(=O)/C=C/c2ccc(C(F)(F)F)cc2F)[C@H](C)CN1CCCC(=O)O [I-199]	370	> 30000
O=C(O)Cc1nc2c(s1)CCN(C(=O)CNC(=O)/C=C/c1ccc(C(F)(F)F)cc1)C2 [I-201]	54	> 30000
O=C(O)Cc1nc2c(s1)CN(C(=O)CNC(=O)/C=C/c1ccc(C(F)(F)F)cc1)CC2 [I-202]	149	> 30000
O=C(O)CCCN1CCN(C(=O)CNC(=O)/C=C/c2ccc(C(F)(F)F)cc2)C(c2ccccc2)C1 (stereo not shown) [I-204]	246	> 30000
O=C(O)Cc1cc(F)c2c(c1)CCN(C(=O)CNC(=O)/C=C/c1ccc(C(F)(F)F)cc1F)C2 [I-205]	99	> 30000
O=C(O)CSc1nc2c(s1)CN(C(=O)CNC(=O)/C=C/c1ccc(C(F)(F)F)cc1F)CC2 [I-214]	91	> 30000
O=C(O)CSc1nc2c(s1)CN(C(=O)CNC(=O)/C=C/c1ccc(C(F)(F)F)cc1)CC2 [I-215]	165	> 30000
N#Cc1cc2c(cc1CC(=O)O)CCN(C(=O)CNC(=O)/C=C/c1ccc(I)cc1F)C2 [I-223]	86	28500
N#Cc1cc2c(cc1CC(=O)O)CCN(C(=O)CNC(=O)/C=C/c1ccc(C(F)(F)F)cc1F)C2 [I-224]	110	> 30000
N#Cc1cc2c(cc1CC(=O)O)CCN(C(=O)CNC(=O)/C=C/c1ccc(C(F)(F)F)cc1F)C2 [I-225]	295	26200
O=C(O)Cc1cc2c(cc1Cl)CN(C(=O)CNC(=O)/C=C/c1ccc(C(F)(F)F)cc1)CC2 [I-226]	101	> 30000
